The numbers were not newly measured in patent US6043276A (Georgetown University School of Medicine, priority 1999, dated 2000), which cites them from elsewhere.

Series [1] relates to integrase protein of HIV-1. The conditions noted are these: Fesen et al.; Burke et al.; Mazumder et al.; cited from earlier work.
Another series deals with xanthine oxidase. The settings on record: Chan et al. 1995; Chang et al. 1994; cited from earlier work.
The subject of a further series is RT for HIV. The conditions noted are these: Kreis et al. 1990; cited from earlier work.
Another series has as its system HIV. The conditions noted are these: literature; cited from earlier work.
The conditions of series [2]: Lin et al. 1996; cited from earlier work.

In the case of `O=C(/C=C/c1ccc(O)c(O)c1)OCCc1ccccc1` [CAPE, Caffeic acid phenethyl esters], the “inhibitory activity on the integrase protein of HIV-1” value in series [1] was “exert inhibitory activity”. In the case of `O=C(O)/C=C/c1ccc(O)c(O)c1` [Caffeic acid], the xanthine oxidase inhibition entry in the series with xanthine oxidase is “inhibit xanthine oxidase”. Also, the “antiviral activity, RT assay for HIV” value in the series with RT for HIV is “has antiviral activity”. In the case of `O=C(/C=C/c1ccc(O)c(O)c1)O[C@H](Cc1ccc(O)c(O)c1)C(=O)O` [Rosemarinic acid], the anti-HIV activity entry in the series on HIV was “possesses anti-HIV activity”. As to `O=C(/C=C/c1ccc(O)c(O)c1/C=C/c1ccc(O)c(O)c1)O[C@H](Cc1ccc(O)c(O)c1)C(=O)O` [salvianolic acid A], the antioxidant properties entry in series [2] is recorded as “antioxidant properties”. On to acetylsalvianolic acid, for which the antioxidant properties result in series [2] is given as “antioxidant properties”.
